Test results from patent publication US7351726B2, “Substituted oxadiazolidinediones” (Wyeth, priority 2003, dated 2008).

Columns and labels:
[1] = target: human PAI-1 (Homo sapiens, UniProt P05121); experiment: Assay for determining IC50 of inhibition of PAI-1 (tPA-coated plate, antibody detection of active PAI-1); assay type: binding; details: active human PAI-1 bound to tPA-coated plate; pH 7.5; compound 1-50 μM
Protocol: This assay is based upon the non-SDS dissociable interaction between tPA and active PAI-1. Assay plates are initially coated with human tPA (10 μg/ml). Substituted oxadiazolidinedione of the present invention are dissolved in DMSO at 10 mM, then diluted with physiologic buffer (pH 7.5) to a final concentration of 1-50 μM. WAY compounds are incubated with human PAI-1 (50 ng/ml) for 15 minutes at room temperature. The tPA-coated plate is washed with a solution of 0.05% Tween 20 and 0.1% BSA, then the plate is blocked with a solution of 3% BSA. An aliquot of the substituted oxadiazolidinedione/PA-1 solution is then added to the tPA-coated plate, incubated at room temperature for 1 hour, and washed. Active PAI-1 bound to the plate is assessed by adding an aliquot of a 1:1000 dilution of the 33B8 monoclonal antibody against human PAI-1, and incubating the plate at room temperature for 1 hour (Molecular Innovations, Royal Oak, Mich.). […] The plate is incubated 45 minutes at room temperature, and color development is determined at OD405nm. The quantitation of active PAI-1 bound to tPA at varying concentrations of substituted oxadiazolidinedione is used to determine the IC50. Results are analyzed using a logarithmic best-fit equation. The assay sensitivity is 5 ng/ml of human PAI-1 as determined from a standard curve ranging from 0-100 ng/ml.

[2] = target: T1, recombinant human plasminogen activator inhibitor-1 (PAI-1) (Homo sapiens, UniProt P05121); experiment: Primary screen for PAI-1 inhibition (chromogenic tPA activity assay); assay type: biochemical; details: 100 μM compound; 140 nM PAI-1, 70 nM tPA; pH 6.6
T1 construct: purchased Molecular Innovations, Royal Oak, Mich
Protocol: Test compounds are dissolved in DMSO at a final concentration of 10 mM, then diluted 100× in physiologic buffer. The inhibitory assay is initiated by the addition of the substituted oxadiazolidinedione (1-100 μM final concentration, maximum DMSO concentration of 0.2%) in a pH 6.6 buffer containing 140 nM recombinant human plasminogen activator inhibitor-1 (PAI-1; Molecular Innovations, Royal Oak, Mich.). Following a 1 hour incubation at room temperature, 70 nM of recombinant human tissue plasminogen activator (tPA) is added, and the combination of the substituted oxadiazolidinedione, PAI-1 and tPA is incubated for an additional 30 minutes. Following the second incubation, Spectrozyme-tPA (American Diagnostica, Greenwich, CT), a chromogenic substrate for tPA, is added and absorbance read at 405 nm at 0 and 60 minutes. Relative PAI-1 inhibition is equal to the residual tPA activity in the presence of WAY and PAI-1. Control treatments include the complete inhibition of tPA by PAI-1 at the molar ratio employed (2:1), and the absence of any effect of the substituted oxadiazolidinedione on tPA alone.

T1 sequence (P05121 24-402): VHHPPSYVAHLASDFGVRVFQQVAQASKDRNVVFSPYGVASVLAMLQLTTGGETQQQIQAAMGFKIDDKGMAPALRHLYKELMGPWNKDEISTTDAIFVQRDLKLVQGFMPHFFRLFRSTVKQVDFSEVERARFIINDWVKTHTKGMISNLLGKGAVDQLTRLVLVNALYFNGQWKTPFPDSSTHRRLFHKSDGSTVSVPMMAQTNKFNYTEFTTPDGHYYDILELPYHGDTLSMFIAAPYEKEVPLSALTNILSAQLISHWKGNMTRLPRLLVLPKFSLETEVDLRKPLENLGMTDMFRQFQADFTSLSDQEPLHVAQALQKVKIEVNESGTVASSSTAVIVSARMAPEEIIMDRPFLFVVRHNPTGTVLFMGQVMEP
Chain of human PAI-1 (P05121 24-402): as above

CC/C(=C/Cn1oc(=O)[nH]c1=O)c1ccc2c(Cc3ccccc3)c(CC)oc2c1 [Compound 1, Z-2-[-3-(3-Benzyl-2-ethyl-benzofuran-6-yl)-pent-2-enyl]-[1,2,4]oxadiazolidine-3,5-dione]
melting point: 118 to 120 °C
IC50 [1]: 9.3 µM

CC/C(=C\Cn1oc(=O)[nH]c1=O)c1ccc2c(Cc3ccccc3)c(CC)oc2c1 [Compound 2, E-2-[-3-(3-Benzyl-2-ethyl-benzofuran-6-yl)-pent-2-enyl]-[1,2,4]oxadiazolidine-3,5-dione]
inhibition at 100 µM [2]: 39%
